Source: patent publication US20160130226A1, “SPIRO-SUBSTITUTED OXINDOLE DERIVATIVES HAVING AMPK ACTIVITY” (BOEHRINGER INGELHEIM INTERNATIONAL GMBH, priority 2013, published 2016)

Key:
AMPK beta 1 = biological target: T1, AMPK beta 1 (Homo sapiens, UniProt Q13131+Q9Y478); test: in-cell-ELISA for phospho-ACC: activation of AMPK, beta 1 (HepG2 cells / C2C12 myotubes); format: cell-based; conditions: 2 h, percentage activation over vehicle control; for activation at 1 µM / activation at 3 µM / activation at 10 µM: read-out: Percentage activation of beta 1 at given concentration
T1 construct: in-cell-ELISA for phospho-ACC (Acetyl-CoA carboxylase 1) in HepG2 cells (liver); endogenous in cells; host or cells: HepG2 (assignment to the beta 1 column inferred)
Procedure: (§1) Activation of AMPK by various compounds were measured using in-cell-ELISA for phospho-ACC (Acetyl-CoA carboxylase 1) in HepG2 cells (liver) and fully differentiated myotubes (C2C12 cells) grown in 96 well plate. Cells were treated with 1 μM, 3 μM or 10 μM of the molecule (Example) for 2 h in serum free DMEM media. After methanol fixation, cells were blocked with BSA followed by addition of anti-phospho ACC antibody (Cell Signaling) and HRP conjugated secondary antibody. Absorbance values taken at 450 nm were normalized with total DNA (Hoechest stain). Results were expressed as percentage activation over vehicle control.
(§2) Percentage activation at compound (Example) concentration of 1, 3 or 10 μM for compounds according to the invention are shown in the following table. The number of the compound corresponds to the number of the Example (Ex) in the experimental section.

AMPK beta 2 = biological target: T2, AMPK beta 2 (Mus musculus, UniProt Q6PAM0+Q8BRK8); test: in-cell-ELISA for phospho-ACC: activation of AMPK, beta 2 (HepG2 cells / C2C12 myotubes); format: cell-based; conditions: 2 h, percentage activation over vehicle control; for activation at 1 µM / activation at 3 µM / activation at 10 µM: read-out: Percentage activation of beta 2 at given concentration
T2 construct: fully differentiated myotubes (C2C12 cells) grown in 96 well plate; endogenous in cells; host or cells: C2C12 myotubes (assignment to the beta 2 column inferred)
Procedure: as §1, §2

T2 sequence (Q6PAM0 whole entry): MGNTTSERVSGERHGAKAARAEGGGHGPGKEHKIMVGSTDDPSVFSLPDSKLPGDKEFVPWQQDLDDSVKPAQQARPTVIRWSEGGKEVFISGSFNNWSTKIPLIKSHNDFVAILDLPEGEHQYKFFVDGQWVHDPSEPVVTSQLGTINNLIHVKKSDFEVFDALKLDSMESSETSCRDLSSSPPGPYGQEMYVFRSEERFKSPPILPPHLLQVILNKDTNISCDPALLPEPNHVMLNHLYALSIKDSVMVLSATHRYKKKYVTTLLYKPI
T2 sequence (Q8BRK8 whole entry): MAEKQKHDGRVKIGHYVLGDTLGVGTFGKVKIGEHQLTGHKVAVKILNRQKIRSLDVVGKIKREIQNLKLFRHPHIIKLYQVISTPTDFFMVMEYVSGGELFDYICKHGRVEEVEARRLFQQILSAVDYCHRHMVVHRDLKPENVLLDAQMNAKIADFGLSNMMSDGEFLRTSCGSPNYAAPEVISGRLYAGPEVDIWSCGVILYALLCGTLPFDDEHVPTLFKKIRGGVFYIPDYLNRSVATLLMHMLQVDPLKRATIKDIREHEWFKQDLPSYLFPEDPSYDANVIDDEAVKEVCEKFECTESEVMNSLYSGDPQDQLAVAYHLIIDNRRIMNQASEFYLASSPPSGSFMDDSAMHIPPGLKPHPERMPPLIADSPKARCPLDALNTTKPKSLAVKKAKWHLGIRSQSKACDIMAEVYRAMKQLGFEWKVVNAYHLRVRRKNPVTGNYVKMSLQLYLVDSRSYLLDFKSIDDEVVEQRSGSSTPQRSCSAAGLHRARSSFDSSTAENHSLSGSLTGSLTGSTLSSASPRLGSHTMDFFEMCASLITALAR
T2 sequence (O54950 whole entry partner): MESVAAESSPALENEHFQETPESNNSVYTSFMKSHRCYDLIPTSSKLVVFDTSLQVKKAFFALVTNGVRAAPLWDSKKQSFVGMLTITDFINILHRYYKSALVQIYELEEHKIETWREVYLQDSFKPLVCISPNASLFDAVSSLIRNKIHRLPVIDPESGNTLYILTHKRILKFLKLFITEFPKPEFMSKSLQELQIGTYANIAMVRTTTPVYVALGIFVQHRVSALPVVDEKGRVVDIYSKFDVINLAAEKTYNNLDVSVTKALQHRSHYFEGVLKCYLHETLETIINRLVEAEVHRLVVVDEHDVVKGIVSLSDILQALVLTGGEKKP
T1 sequence (Q9Y478 2-270 limits assumed): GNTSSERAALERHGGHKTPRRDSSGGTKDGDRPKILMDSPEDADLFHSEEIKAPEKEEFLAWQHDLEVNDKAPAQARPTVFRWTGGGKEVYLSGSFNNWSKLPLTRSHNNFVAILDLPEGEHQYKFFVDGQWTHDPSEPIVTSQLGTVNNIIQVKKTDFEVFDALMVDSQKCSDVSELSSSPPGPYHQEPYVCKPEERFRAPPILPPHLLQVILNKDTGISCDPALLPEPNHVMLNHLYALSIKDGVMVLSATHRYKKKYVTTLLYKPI
T1 sequence (Q13131 whole entry): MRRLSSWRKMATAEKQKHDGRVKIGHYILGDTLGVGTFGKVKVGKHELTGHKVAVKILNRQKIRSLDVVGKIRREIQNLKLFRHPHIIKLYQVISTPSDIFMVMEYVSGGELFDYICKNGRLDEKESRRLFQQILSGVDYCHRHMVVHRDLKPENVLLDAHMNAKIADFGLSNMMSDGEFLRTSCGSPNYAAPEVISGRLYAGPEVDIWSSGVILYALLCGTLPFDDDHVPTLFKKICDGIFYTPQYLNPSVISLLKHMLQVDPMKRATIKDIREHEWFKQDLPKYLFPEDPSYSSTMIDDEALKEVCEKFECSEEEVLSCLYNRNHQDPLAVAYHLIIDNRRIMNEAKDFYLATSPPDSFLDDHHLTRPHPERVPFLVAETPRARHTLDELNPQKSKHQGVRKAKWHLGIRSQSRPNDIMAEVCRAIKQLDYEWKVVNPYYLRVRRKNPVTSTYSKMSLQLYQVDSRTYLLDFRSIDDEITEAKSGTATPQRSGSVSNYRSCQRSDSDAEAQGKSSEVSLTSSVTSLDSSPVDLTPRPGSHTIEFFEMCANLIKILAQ
T1 sequence (P54619 whole entry partner): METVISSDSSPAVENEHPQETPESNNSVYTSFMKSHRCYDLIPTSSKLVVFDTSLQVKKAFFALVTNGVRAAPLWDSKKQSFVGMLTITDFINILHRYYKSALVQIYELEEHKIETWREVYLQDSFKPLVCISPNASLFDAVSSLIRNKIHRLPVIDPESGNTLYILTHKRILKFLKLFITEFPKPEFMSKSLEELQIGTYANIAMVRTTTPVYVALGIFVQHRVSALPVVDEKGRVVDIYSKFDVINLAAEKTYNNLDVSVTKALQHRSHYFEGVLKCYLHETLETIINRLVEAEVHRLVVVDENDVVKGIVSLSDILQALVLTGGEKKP

activation at 1 µM (AMPK beta 1; 1 μM) [%] | activation at 1 µM (AMPK beta 2; 1 μM) [%] | activation at 3 µM (AMPK beta 2; 3 μM) [%] | SMILES | further results
58 | 50 |  | O=C(O)c1cccc(C2CC23C(=O)Nc2cc(F)c(-c4ccc(-c5ccc(-n6cccn6)cc5)cc4)cc23)c1 (centres unmarked) [Example 170] | 
 |  | 23 | COc1ccc(C2CC23C(=O)N(C)c2cc(Cl)c(-c4ccc(-c5ccccc5O)cc4)cc23)cc1CC(=O)O (centres unmarked) [Example 35] | activation at 3 µM (AMPK beta 1; 3 μM): 27%
59 | 153 |  | CC(C)c1ccc(C2CC23C(=O)Nc2cc(Cl)c(-c4ccc(-c5ccc(-n6cncn6)cc5)cc4)cc23)cc1C(=O)O (centres unmarked) [Example 132] | 
88 | 88 |  | Cc1ccc(C2CC23C(=O)Nc2cc(Cl)c(-c4ccc(-c5ccccc5O)cc4)cc23)cc1CO (centres unmarked) [Example 181] | 
62 |  | 101 | COc1ccc(C2CC23C(=O)Nc2cc(Cl)c(-c4ccc(-c5ccccc5O)cc4)cc23)cc1CC(=O)O (centres unmarked) [Example 25] | 
99 | 37 |  | Cc1ccc(C2CC23C(=O)Nc2cc(Cl)c(-c4ccc(-c5ccc(S(C)(=O)=O)cc5)cc4)cc23)cc1C(=O)O (centres unmarked) [Example 97] | 
 |  | 54 | O=C(O)c1cccc(C2CC23C(=O)Nc2cc(Cl)c(-c4ccc(-c5ccncc5)cc4)cc23)c1 (centres unmarked) [Example 80] | activation at 10 µM (AMPK beta 1): 137%
98 | 120 |  | COc1ccc(C2CC23C(=O)Nc2cc(F)c(-c4ccc(-c5ccc(-n6cncn6)cc5)cc4)cc23)cc1CC(=O)O (centres unmarked) [Example 178] | 
66 | 85 |  | COc1ccc(C2CC23C(=O)Nc2cc(Cl)c(-c4ccc(-c5ccc(-n6cncn6)cc5)cc4)cc23)cc1CC(=O)O (centres unmarked) [Example 123] | 
66 |  | 198 | COc1ccc(C2CC23C(=O)Nc2cc(Cl)c(-c4ccc(-c5ccc(-n6cncn6)cc5)cc4)cc23)cc1C(=O)O (centres unmarked) [Example 128] | 
36 | 61 |  | COc1ccc(C2CC23C(=O)Nc2cc(F)c(-c4ccc(-c5ccc(-n6ccnn6)cc5)cc4)cc23)cc1C(=O)O (centres unmarked) [Example 169] | 
103 |  | 46 | Cc1ccc(C2CC23C(=O)N(C)c2cc(Cl)c(-c4ccc(-c5ccncc5)cc4)cc23)cc1C(=O)O (centres unmarked) [Example 101] | 
 |  |  | Cc1ccc(C2CC23C(=O)Nc2cc(F)c(-c4ccc(-c5ccc(-n6cncn6)cc5)cc4)cc23)cc1C(=O)O (centres unmarked) [Example 146] | Percentage activation of beta 1 at given concentration (AMPK beta 1; 1 μM): 78% at 1 μM; Percentage activation of beta 2 at given concentration (AMPK beta 2; 1 μM): 89% at 1 μM
 |  | 2 | CCN1C(=O)C2(CC2c2ccc(C)c(C(=O)O)c2)c2cc(-c3ccc(-c4ccncc4)cc3)c(Cl)cc21 (centres unmarked) [Example 103] | activation at 3 µM (AMPK beta 1; 3 μM): 74%
 |  |  | Cc1ccc(C2CC23C(=O)N(CC2CC2)c2cc(Cl)c(-c4ccc(-c5ccncc5)cc4)cc23)cc1C(=O)O (centres unmarked) [Example 108] | Percentage activation of beta 1 at given concentration (AMPK beta 1; 3 μM): 72% at 3 μM; Percentage activation of beta 2 at given concentration (AMPK beta 2; 3 μM): 54% at 3 μM
 |  | 83 | O=C(O)Cc1ccc(C2CC23C(=O)Nc2cc(Cl)c(-c4ccc(-c5ccccc5O)cc4)cc23)cc1 (centres unmarked) [Example 33] | activation at 3 µM (AMPK beta 1; 3 μM): 71%
26 | 62 |  | Cc1ccc(C2CC23C(=O)Nc2c3cc(-c3ccc(-c4ccc(-n5cncn5)cc4)cc3)c(Cl)c2Cl)cc1C(=O)O (centres unmarked) [Example 149] | 
 |  | 49 | Cc1ccc(C2CC23C(=O)Nc2cc(Cl)c(-c4ccc(-c5ccnc(N(C)C)c5)cc4)cc23)cc1C(=O)O (centres unmarked) [Example 86] | activation at 3 µM (AMPK beta 1; 3 μM): 95%
66 |  | 105 | Cc1ccc(C2CC23C(=O)Nc2cc(Cl)c(-c4ccc(-c5ccncc5)cc4)cc23)cc1C(=O)O (centres unmarked) [Example 60] | 
55 | 84 |  | COc1ccc(C2CC23C(=O)Nc2cc(F)c(-c4ccc(-c5ccc(-n6cncn6)cc5)cc4)cc23)cc1C(=O)O (centres unmarked) [Example 168] | 
 |  | 42 | CC(C)c1ccc(C2CC23C(=O)Nc2cc(Cl)c(-c4ccc(C5(CO)CC5)cc4)cc23)cc1C(=O)O (centres unmarked) [Example 46] | activation at 3 µM (AMPK beta 1; 3 μM): 83%
58 |  | 106 | CC(C)(C(=O)O)c1ccc(C2CC23C(=O)Nc2cc(Cl)c(-c4ccc(-c5ccccc5O)cc4)cc23)cc1 (centres unmarked) [Example 38] | 

activation at 1 µM (AMPK beta 1; 1 μM) [%] | activation at 1 µM (AMPK beta 2; 1 μM) [%] | activation at 3 µM (AMPK beta 2; 3 μM) [%] | SMILES | further results
 |  |  | Cc1ccc(C2CC23C(=O)Nc2cc(F)c(-c4ccc(-c5ccc(-n6cncn6)cc5)cc4)cc23)cc1C(=O)O (centres unmarked) [Example 145] | Percentage activation of beta 1 at given concentration (AMPK beta 1; 1 μM): 67% at 1 μM; Percentage activation of beta 2 at given concentration (AMPK beta 2; 1 μM): 138% at 1 μM
 | 114 |  | Cc1ccc(C2CC23C(=O)Nc2cc(Cl)c(-c4ccc(-c5ccc(-n6cncn6)cc5)cc4)cc23)cc1C(=O)O (centres unmarked) [Example 115] | Percentage activation of beta 1 at given concentration (AMPK beta 1; 1 μM): 132% at 1 μM
 | 50 |  | Cc1ccc(C2CC23C(=O)Nc2cc(F)c(-c4ccc(-c5ccccc5O)cc4)cc23)cc1C(=O)O (centres unmarked) [Example 5] | activation at 3 µM (AMPK beta 1; 3 μM): 133%
 | 283 |  | COc1ccc(C2CC23C(=O)Nc2cc(Cl)c(-c4ccc(-c5ccc(-n6ccnn6)cc5)cc4)cc23)cc1C(=O)O (centres unmarked) [Example 139] | activation at 3 µM (AMPK beta 1; 3 μM): 85%
 | 79 |  | CC(C)(C(=O)O)c1ccc(C2CC23C(=O)Nc2cc(F)c(-c4ccc(-c5ccc(-n6cncn6)cc5)cc4)cc23)cc1 (centres unmarked) [Example 162] | Percentage activation of beta 1 at given concentration (AMPK beta 1; 1 μM): 61% at 1 μM
 |  | 32 | CC(C)c1ccc(C2CC23C(=O)N(C)c2cc(Cl)c(-c4ccc(-c5ccncc5O)cc4)cc23)cc1C(=O)O (centres unmarked) [Example 40] | activation at 3 µM (AMPK beta 1; 3 μM): 99%
119 | 60 |  | O=C(O)Cc1cccc(C2CC23C(=O)Nc2cc(F)c(-c4ccc(-c5ccc(-n6cncn6)cc5)cc4)cc23)c1 (centres unmarked) [Example 175] | 
79 |  | 57 | Cc1ccc(C2CC23C(=O)Nc2cc(Cl)c(-c4ccc(-c5ccc(-n6cccn6)cc5)cc4)cc23)cc1C(=O)O (centres unmarked) [Example 114] | 
 |  |  | Cc1ccc(C2CC23C(=O)Nc2cc(Cl)c(-c4ccc(-c5ccc(-n6ccnn6)cc5)cc4)cc23)cc1C(=O)O (centres unmarked) [Example 134] | Percentage activation of beta 1 at given concentration (AMPK beta 1; 1 μM): 123% at 1 μM; Percentage activation of beta 2 at given concentration (AMPK beta 2; 1 μM): 47% at 1 μM
18 | 81 |  | Cc1ccc(C2CC23C(=O)Nc2cc(Cl)c(-c4ccc(-c5ccc(-n6ccnc6C)cc5)cc4)cc23)cc1C(=O)O (centres unmarked) [Example 150] | 
 |  |  | O=C(O)c1ccc(C2CC23C(=O)Nc2cc(Cl)c(-c4ccc(-c5ccncc5)cc4)cc23)cc1 (centres unmarked) [Example 95] | activation at 10 µM (AMPK beta 1): 94%; activation at 10 µM (AMPK beta 2): 34%
52 | 102 |  | CCc1ccc(C2CC23C(=O)Nc2cc(Cl)c(-c4ccc(-c5ccc(-n6cncn6)cc5)cc4)cc23)cc1C(=O)O (centres unmarked) [Example 130] | 
78 | 38 |  | CC(C)(C(=O)O)c1ccc(C2CC23C(=O)Nc2cc(F)c(-c4ccc(-c5ccc(-n6cccn6)cc5)cc4)cc23)cc1 (centres unmarked) [Example 158] | 
94 |  | 65 | Cc1ccc(C2CC23C(=O)N(CC2CC2)c2cc(Cl)c(-c4ccc(-c5ccncc5)cc4)cc23)cc1C(=O)O (centres unmarked) [Example 107] | 
 | 66 |  | Cc1ccc(C2CC23C(=O)Nc2cc(F)c(-c4ccc(-c5ccc(-n6cccn6)cc5)cc4)cc23)cc1C(=O)O (centres unmarked) [Example 142] | Percentage activation of beta 1 at given concentration (AMPK beta 1; 1 μM): 89% at 1 μM
81 | 46 |  | Cc1ccc(C2CC23C(=O)Nc2cc(Cl)c(-c4ccc(-c5ccc(-n6cncn6)cc5)cc4)nc23)cc1C(=O)O (centres unmarked) [Example 125] | 
121 | 94 |  | Cc1ccc(C2CC23C(=O)Nc2cc(F)c(-c4ccc(-c5ccccc5O)cc4)cc23)cc1CO (centres unmarked) [Example 190] | 
49 | 36 |  | CCc1ccc(C2CC23C(=O)Nc2cc(Cl)c(-c4ccc(-c5ccc(-n6cncn6)cc5)cc4)nc23)cc1C(=O)O (centres unmarked) [Example 133] | 
 |  |  | Cc1ccc(C2CC23C(=O)Nc2cc(Cl)c(-c4ccc(-c5ccc(-n6ccnn6)cc5)cc4)cc23)cc1C(=O)O (centres unmarked) [Example 135] | Percentage activation of beta 1 at given concentration (AMPK beta 1; 1 μM): 97% at 1 μM; Percentage activation of beta 2 at given concentration (AMPK beta 2; 1 μM): 214% at 1 μM
 |  |  | CN1C(=O)C2(CC2c2ccc(CC(=O)O)cc2)c2cc(-c3ccc(-c4ccncc4)cc3)c(Cl)cc21 (centres unmarked) [Example 102] | activation at 3 µM (AMPK beta 1; 3 μM): 33%; activation at 10 µM (AMPK beta 2): 115%
72 | 173 |  | Cc1ccc(C2CC23C(=O)Nc2cc(Cl)c(-c4ccc(-c5ccc(-n6cccn6)cc5)cc4)nc23)cc1C(=O)O (centres unmarked) [Example 138] | 
